Patent US10117873B2, “6-amino-purin-8-one compounds” (GlaxoSmithKline LLC, priority 2008, dated 2018)

Key:
Type in all cases: cell-based
Interferon-α = experiment: Induction of Interferon-α using cryopreserved human PBMCs; conditions: PBMC, 24 h incubation, normalized to 1 uM resiquimod, read-out: mean pEC50 for induction of Interferon-α (converted)
Method: Assay for the Induction of Interferon-α Using Cryopreserved Human Peripheral Blood Mononuclear Cells (PBMCs)
Compounds were dissolved in DMSO. Serial 2-fold dilutions with DMSO were prepared and 0.25 μl dispensed into 384-well clear Greiner polypropylene plates.
Blood samples of up to 200 ml were obtained from healthy human donors. Whole blood in 25 ml volumes was overlaid onto 15 ml Ficoll® gradients in Leucosep® tubes, and centrifuged at 1000 g for 20 min. Cells in the band at the plasma/Histopaque® interface were carefully removed and washed twice with PBS (centrifuged at 400 g for 5 min to harvest). The final pellet was resuspended in freezing medium (90% Heat-inactivated serum, 10% DMSO) to a cell concentration of 4×10^7 cells/ml. The resuspended cells were then cryopreserved (frozen) using a rate controlled freezer, and stored at −140° C. for up to 4 months.
Immediately prior to assay, vials of cryopreserved (frozen) PBMCs were thawed rapidly in a water bath at 37° C. A 1:10 dilution of the cells in trypan blue was prepared and counted. The PBMCs were then diluted in growth media [RPMI 1640 containing 10% fetal calf serum (invitrogen), Penicillin+[…] (Gibco cat. #25030-024, 1:50), L-Glutamine 2 mM, and 1000 units/ml recombinant human IFN-gamma (Preprotech catalogue #300-02)] to a density of 1×10^6 cells/ml, and 50 ul/well dispensed to 384-well clear Greiner polypropylene plates containing 0.25 μl DMSO or test compound in 0.25 μl DMSO. […] Plates were incubated for 24 h at 37° C. in 5% CO2.
A multi-isoform immunoassay was used to quantify IFN-α in PBMC supernatants. Rabbit polyclonal antibody against human IFN-α (catalogue number 31101, Stratech Scientific) was diluted 1:10000 in assay buffer (RPMI 1640 containing 10% fetal calf serum, Invitrogen) and 20 μl was added to each well of an MSD® (Meso-Scale® Discovery) single small-spot 384-well GAR (goat anti-rabbit antibody coated) plate.
The plate was incubated for 1 h at room temperature with vigorous shaking. Following three washes with PBS, 20 μl of cell supernatant were added to each well of the plate. The plate was then incubated for 1 h at room temperature with vigorous shaking. A pair of monoclonal antibodies to IFN-α (catalogue numbers 21100 and 21112, Stratech Scientific) were labelled with sulfo-TAG (MSD®), diluted 1:1000 in assay buffer and 20 μl added to each well of the plate. The plate was further incubated for 1 h at room temperature with vigorous shaking. Following three washes with PBS, 30 μl of ×2 T buffer (MSD®) was added to each well and the plate was read on an MSD® Sector 6000 plate reader.
Data were normalized to internal plate controls of 1 uM resiquimod (n=16) and DMSO (n=16). pEC50 values were derived by 4-parameter curve fit with IRLS in ActivityBase, from 11-point, two-fold serial dilution of test compounds.

IFN-α = experiment: Induction of Interferon-α using fresh human PBMCs; conditions: PBMC, 24 hr incubation, relative to 2 μM resiquimod control, read-out: mean pEC50 for induction of IFN-α (converted)
Method: (§1) Assay for the Induction of Interferon-α and TNF-α Using Fresh Human Peripheral Blood Mononuclear Cells (PBMCs)
(§2) Compounds were dissolved and serially diluted in DMSO to give 100× the required concentration range using a Biomek® 2000. 1 ul of test compound was transferred into 96-well tissue culture plates using a Biomek® FX. Each compound was assayed in duplicate for each donor. Each plate contained a dilution series of the TLR7/8 agonist resiquimod as standard and Column 11 contained 1 μl of 200 μM resiquimod (giving a 2 μM final concentration, used to define the approximate maximal response to resiquimod).
(§3) Blood samples from two human donors were collected into sodium heparin (10 U/ml). 25 ml volumes of whole blood were overlaid onto 15 mls Histopaque® in LEUCOSEP™ tubes which were centrifuged at 800 g for 20 min and the band at the plasma/histopaque interface carefully removed. The collected cells were centrifuged at 2500 rpm for 10 min and the pellet resuspended in 10 ml of media (RPMI 1640 (Low endotoxin) supplemented with 10% v/v foetal calf serum (FCS, low endotoxin) 100 U/ml penicillin G, 100 μg/ml streptomycin, 10 mM L-glutamine and 1× non-essential amino acids). A 1:20 dilution of the cells was prepared using trypan blue & the cells counted using a haemocytometer. The PBMCs were diluted to give a final concentration of 2×10^6/ml and 100 ul of this cells suspension was added to wells containing 1 μl of diluted test compound.
(§4) The cell preparations were incubated for 24 hr (37° C., 95% air, 5% CO2) after which a sample of the supernatant was removed using the Biomek® FX and assayed for both IFN-α and TNF-α using the MSD® (Mesoscale Discovery) electrochemiluminescence assay platform. The IFN-α assay was carried out similarly to that described above. The TNF-α assay was carried out as per kit instructions (Cat No K111BHB).
(§5) Cytokine released was expressed as a percentage of the 2 μM resiquimod control (column 11). This percentage was plotted against compound concentration and the pEC50 for the response determined by non-linear least squares curve fitting. For the IFN-α responses generally a 4 parameter logistic model was selected. For the TNF responses where a clear maximum response was obtained (i.e. a well defined plateau in the response was observed) then a 4 parameter model was generally used. If the upper asymptote of the curve wasn't well defined then the curve fitting was generally constrained to a maximal response of 100% (i.e. to the response to 2 μM resiquimod) or to the response of the highest concentration tested if this was greater than the resiquimod response. Some curves were bell shaped for one or both cytokines and the cytokine data on the down slope of the bell shaped response (i.e. concentrations above those giving the maximal response) were generally excluded from the fit, usually with the exception of the concentration immediately above the peak response. Curve fitting thus concentrated on the up slope of the dose response curve.

TNF-α = experiment: Induction of TNF-α using fresh human PBMCs; conditions: PBMC, 24 hr incubation, relative to 2 μM resiquimod control, read-out: mean pEC50 for induction of TNF-α (converted)
Method: as §1, §2, §3, §4, §5

| EC50 (IFN-α) [µM] | EC50 (TNF-α) [µM] | Structure (SMILES) | EC50 (Interferon-α) [µM] |
| --- | --- | --- | --- |
| – | – | CCCCOc1nc(N)c2[nH]c(=O)n(CCCN3CCC3)c2n1 [Example 1, 6-Amino-9-[3-(1-azetidinyl)propyl]-2-(butyloxy)-7,9-dihydro-8H-purin-8-one] | < 3.16 |
| – | – | CCC[C@H](C)Oc1nc(N)c2[nH]c(=O)n(CCCN3CCCCC3)c2n1 [Example 32, 6-Amino-2-{[(1S)-1-methylbutyl]oxy}-9-[3-(1-piperidinyl)propyl]-7,9-dihydro-8H-purin-8-one] | < 3.16 |
| ≤ 0.01 | > 1 | CCCCOc1nc(N)c2[nH]c(=O)n(CCCCN3CCCCC3)c2n1 [Example 6, 6-Amino-2-(butyloxy)-9-[4-(1-piperidinyl)butyl]-7,9-dihydro-8H-purin-8-one] | < 3.16 |
| ≤ 0.001 | ≥ 0.316 | CCC[C@H](C)Oc1nc(N)c2[nH]c(=O)n(CCCCCN3CCCCCC3)c2n1 [Example 23, 6-Amino-9-[5-(hexahydro-1H-azepin-1-yl)pentyl]-2-{[(1S)-1-methylbutyl]oxy}-7,9-dihydro-8H-purin-8-one] | < 3.16 |
| – | – | CCCCOc1nc(N)c2[nH]c(=O)n(CCCN3CCCC3)c2n1 [Example 2, 6-Amino-2-(butyloxy)-9-[3-(1-pyrrolidinyl)propyl]-7,9-dihydro-8H-purin-8-one] | < 3.16 |
| – | – | CCCC[C@H](C)Oc1nc(N)c2[nH]c(=O)n(CCCCN3CCCCC3)c2n1 [Example 25, 6-Amino-2-{[(1S)-1-methylpentyl]oxy}-9-[4-(1-piperidinyl)butyl]-7,9-dihydro-8H-purin-8-one] | < 3.16 |
| ≤ 0.01 | > 1 | CCCCOc1nc(N)c2[nH]c(=O)n(CCCCCCN3CCCCC3)c2n1 [Example 14, 6-Amino-2-(butyloxy)-9-[6-(1-piperidinyl)hexyl]-7,9-dihydro-8H-purin-8-one] | < 3.16 |
| ≤ 0.01 | > 1 | CCCCOc1nc(N)c2[nH]c(=O)n(CCCCN3CCCCCC3)c2n1 [Example 7, 6-Amino-2-(butyloxy)-9-[4-(hexahydro-1H-azepin-1-yl)butyl]-7,9-dihydro-8H-purin-8-one] | < 3.16 |
| < 0.0316 | > 3.16 | CCCCOc1nc(N)c2[nH]c(=O)n(CCCCN3CCCC3)c2n1 [Example 5, 6-Amino-2-(butyloxy)-9-[4-(1-pyrrolidinyl)butyl]-7,9-dihydro-8H-purin-8-one] | < 3.16 |
| – | – | CCC[C@H](C)Nc1nc(N)c2[nH]c(=O)n(CCCCN3CCCCC3)c2n1 [Example 31, 6-Amino-2-{[(1S)-1-methylbutyl]amino}-9-[4-(1-piperidinyl)butyl]-7,9-dihydro-8H-purin-8-one] | < 3.16 |
| – | – | CCC[C@@H](C)Nc1nc(N)c2[nH]c(=O)n(CCCCN3CCCCC3)c2n1 [Example 30, 6-Amino-2-{[(1R)-1-methylbutyl]amino}-9-[4-(1-piperidinyl)butyl]-7,9-dihydro-8H-purin-8-one] | < 3.16 |
| – | – | Nc1nc(OC2CCCC2)nc2c1[nH]c(=O)n2CCCCN1CCCCC1 [Example 28, 6-Amino-2-(cyclopentyloxy)-9-[4-(1-piperidinyl)butyl]-7,9-dihydro-8H-purin-8-one] | < 3.16 |
| – | – | Nc1nc(OC2CCCCC2)nc2c1[nH]c(=O)n2CCCCN1CCCCC1 [Example 29, 6-Amino-2-(cyclohexyloxy)-9-[4-(1-piperidinyl)butyl]-7,9-dihydro-8H-purin-8-one] | < 3.16 |
| – | – | Nc1nc(OC2CCC2)nc2c1[nH]c(=O)n2CCCCN1CCCCC1 [Example 27, 6-Amino-2-(cyclobutyloxy)-9-[4-(1-piperidinyl)butyl]-7,9-dihydro-8H-purin-8-one] | < 3.16 |
| – | – | CCCCNc1nc(N)c2[nH]c(=O)n(CCCCN3CCCCC3)c2n1 [Example 17, 6-Amino-2-(butylamino)-9-[4-(1-piperidinyl)butyl]-7,9-dihydro-8H-purin-8-one] | < 3.16 |
| – | – | CCCCOc1nc(N)c2[nH]c(=O)n(CCCCCN3CCC3)c2n1 [Example 8, 6-Amino-9-[5-(1-azetidinyl)pentyl]-2-(butyloxy)-7,9-dihydro-8H-purin-8-one] | < 3.16 |
| – | – | CCCCNc1nc(N)c2[nH]c(=O)n(CCCN3CCCCC3)c2n1 [Example 16, 6-Amino-2-(butylamino)-9-[3-(1-piperidinyl)propyl]-7,9-dihydro-8H-purin-8-one] | < 3.16 |
| – | – | CCCCOc1nc(N)c2[nH]c(=O)n(CCCCN3CCC3)c2n1 [Example 4, 6-Amino-9-[4-(1-azetidinyl)butyl]-2-(butyloxy)-7,9-dihydro-8H-purin-8-one] | < 3.16 |
| – | – | CCCCOc1nc(N)c2[nH]c(=O)n(CCCN3CCCCCC3)c2n1 [Example 3, 6-Amino-2-(butyloxy)-9-[3-(hexahydro-1H-azepin-1-yl)propyl]-7,9-dihydro-8H-purin-8-one] | < 3.16 |
| – | – | CCCCOc1nc(N)c2[nH]c(=O)n(CCCN3CCCCC3)c2n1 [Example 34, 6-Amino-2-(butyloxy)-9-[3-(1-piperidinyl)propyl]-7,9-dihydro-8H-purin-8-one] | < 3.16 |
| – | – | CCCCNc1nc(N)c2[nH]c(=O)n(CCCCCN3CCCCCC3)c2n1 [Example 19, 6-Amino-2-(butylamino)-9-[5-(hexahydro-1H-azepin-1-yl)pentyl]-7,9-dihydro-8H-purin-8-one] | < 3.16 |
| – | – | CC[C@H](C)Oc1nc(N)c2[nH]c(=O)n(CCCCCN3CCCCC3)c2n1 [Example 33, 6-Amino-2-{[(1S)-1-methylpropyl]oxy}-9-[5-(1-piperidinyl)pentyl]-7,9-dihydro-8H-purin-8-one] | < 3.16 |
| – | – | CC(C)Oc1nc(N)c2[nH]c(=O)n(CCCCCN3CCCCC3)c2n1 [Example 26, 6-Amino-2-[(1-methylethyl)oxy]-9-[5-(1-piperidinyl)pentyl]-7,9-dihydro-8H-purin-8-one] | < 3.16 |
| – | – | CC[C@H](C)Oc1nc(N)c2[nH]c(=O)n(CCCCN3CCCCC3)c2n1 [Example 24, 6-Amino-2-{[(1S)-1-methylpropyl]oxy}-9-[4-(1-piperidinyl)butyl]-7,9-dihydro-8H-purin-8-one] | < 3.16 |
